A short description of the data set: Flash point by Tag Closed Cup. It is filed as physicochemical. An excerpt:
MMB also has the benefit over ethanol that it is substantially non-flammable. […] MMB is considered to be extremely safe, having no R and S phrases and Occupational Exposure Limit.

Compound `COC(C)(C)CCO` [MMB, 3-methoxy-3-methylbutan-1-ol] registered a flash point of 68 °C.
